Measured values published in a melting point compilation (Tetko et al.; mined from patent text by program, amines drawn as free bases though some values may be those of a salt).

| melting point [°C] | SMILES |
| --- | --- |
| 181 to 183 | O=C1NCCC[C@@H]1NS(=O)(=O)c1ccc(C(F)(F)F)cc1 |
| 188 to 189 | CC(=NC(C#N)=C(N)C#N)c1ccc2ccccc2c1 |
| 110 to 111 | C=CCc1cc(Nc2ccn(-c3ccccc3)n2)cc(CC=C)c1OC(C)=O |
| 120 to 121 | Oc1ccccc1-c1cc(-c2ccc3c(c2)OCO3)cc(-c2ccsc2)n1 |
| 135 to 137 | CCCCCCCC(=O)Nc1cc(Cc2c(Cl)cccc2Cl)nc(Nc2ccc(C#N)cc2)n1 |
| 95 to 96 | CC(C)(C)OC(=O)N1CCN(c2ccc(Oc3cc(Cl)ccc3N)cc2)CC1 |
| 165 to 167 | O=C1CCC(N2C(=O)c3cccc(CNC(=O)c4ccc(C(F)(F)F)c(F)c4)c3C2=O)C(=O)N1 (configuration not stated) |
| 193 to 194 | O=C(O)c1c(-c2ccccc2)c2ccccc2n1Cc1ccc(OCc2ccccc2)cc1 |
| 163 to 167 | COC(=O)c1cccc2nc(N3CCOCC3)n(Cc3ccc(-c4ccccc4)c(-c4nnn[nH]4)c3)c12 |
| 49 to 51 | COc1ccc(CC#N)c(CC#N)c1 |
| 65 to 67 | O=[N+]([O-])c1ccccc1NCc1ccccc1 |
| 188 to 190 | CCOC(=O)c1ncn(C(c2ccccc2)(c2ccccc2)c2ccccc2)c1C |
| 55 to 58 | COC(=O)C1=C(O)CCc2c(OC)cccc21 |
| 190 to 192 | CC(C)(C)OC(=O)[C@@H]1CCCN2C(=O)CC[C@H](NC(=O)OCC3c4ccccc4-c4ccccc43)C(=O)N12 |
| 205 to 207 | CNc1nc(Nc2ccc(OCCNC(=O)OC(C)(C)C)cc2)ncc1[N+](=O)[O-] |
| 194 | O=C(N1CCOCC1)n1nc2c(Cl)c(Cl)c(Cl)c(Cl)c2n1 |
| 118 to 120 | COc1ccc(C=CC(=O)O)cc1-c1cc2c(cc1OCCCCCCO)C(C)(C)CCC2(C)C |
| 184 | COc1ccc(-c2ccc(N)nn2)cc1OC(C)C |
| 208 to 210 | COc1ccc(-c2c(Cl)ncn2-c2ccc(S(=O)(=O)NC(C)(C)C)cc2)cc1F |
| 112 to 114 | COc1cc(-c2ccc(C(F)(F)F)cc2)c(C(C)=NOCc2ccc([N+](=O)[O-])cc2)cc1O |
| 187 to 188 | Cc1onc(-c2ccc(Cl)cc2)c1CCC(=O)O |
| 236 to 238 | O=C(O)c1ccc(COCc2csc3nc(C(=O)NCc4cccc(Cl)c4)[nH]c(=O)c23)cc1 |
| 76 to 77 | O=C(NCCCCC1CCSS1)N1CCSC1 (configuration not stated) |
| 104 to 106 | C#CCc1ccc2onc3c2c1OCC=N3 |
| 198 | COc1ccccc1CCC(=O)Nc1sc2c(c1C#N)CCN(C(=O)OC(C)(C)C)C2 |

| melting point [°C] | SMILES |
| --- | --- |
| > 300 | S=c1c2[nH]cnc2c2cccnc2n1-c1ccccc1 |
| 109 to 110 | CCOC(=O)C(=Cc1ccco1)c1csc(N)n1 |
| 183 to 185 | CC(=O)c1ccc(-n2sc3ccccc3c2=O)cc1 |
| 188 to 192 | Cc1nc(NC2CCCC2O)c2ncn(C3OC(CO)C(O)C3O)c2n1 (configuration not stated) |
| 118 to 120 | CCOC(=O)c1ccc(C=C(C)c2cc3c(s2)C(C)(C)CCC3(C)C)cc1 |
| 230 to 235 | CCSc1ccnc2sc(C(N)=O)c(N)c12 |
| 107 to 109 | CC(=Cc1ccc(F)cc1)CNC(=O)c1ccc(F)cc1 |
| 77 to 79 | C=C1C2CCC(=O)C23CCC(C3)C1(C)C (configuration not stated) |
| 29 to 31 | CCCCCCCCCNC(=O)CCCC |
| 145 to 146 | COc1ccc(OC)c(/C=C/C(=O)/C=C/C(=O)O)c1 |
| 208 to 209 | CCc1[nH]n(C2CCCC2)c2nc(-c3ccccc3OCC(=O)O)nc(=O)c1-2 |
| 45 to 47 | CCOC(=O)c1ccc(Br)c(OC(F)F)c1Br |
| 174 to 178 | NC(=O)CN1C(=O)[C@H](NC(=O)c2cc3ccccc3[nH]2)[C@H](c2ccccc2)Sc2cc(Cl)ccc21 (relative stereo) |
| 215 to 216 | Cc1ccc(-n2c(=O)c(C)nc3cccnc32)cc1 |
| 192 to 195 | O=Cc1cc(O)c(O)c(C=O)c1 |
| 179 to 180 | CCCN(Cc1ccc(-c2ccccc2C(=O)C(=O)O)cc1)c1ncccc1C(=O)O |
| 60 to 62 | Fc1ccccc1COC1COC(CCl)OC1 (configuration not stated) |
| 162 | Cc1cc(OC(F)(F)F)cc2sc(N)nc12 |
| 76 to 106 | COc1cc(OC)nc(NCC2COC3(CCC(C(C)(C)C)CC3)O2)n1 (configuration not stated) |
| > 360 | CCN(CC)S(=O)(=O)c1cc2[nH]c(=O)c(=O)[nH]c2cc1[N+](=O)[O-] |
| 55 to 57 | COC(=O)c1sc(Cl)nc1-c1ccccc1 |
| 140 | CC(C)(C)CC(C)(C)NCC(O)COc1ccccc1C(=O)Nc1cccc2[nH]ccc12 (configuration not stated) |
| 217 to 220 | COC(=O)c1cn(-c2ccc(F)cc2)c(-c2ccc(N(C)C)c(C)c2)cc1=O |
| 130 to 131 | CCOC(=O)c1c(CN(CC)CC)nc2cc(OC)c(OC)cc2c1-c1ccc(OC)c(OC)c1 |
| 173 | CCC(c1ccc2[nH]c(C(F)(F)F)nc2c1)n1ccnc1 (configuration not stated) |

| melting point [°C] | SMILES |
| --- | --- |
| > 260 | NC(=O)c1nc(-c2cccc(O)c2)nc2c1[nH]c(=O)n2-c1cccc2[nH]ccc12 |
| 312 to 315 | O=C1N=C(N2CCCC2)SC1=Cc1ccc(-c2cc(F)c(O)c(C34CC5CC(CC(C5)C3)C4)c2)s1 |
| 120 to 122 | CN(C)CCCNc1ncc2c(n1)-c1ccccc1C(c1cccc(Br)c1)C2 (configuration not stated) |
| 139 | COc1cc(C)cc(OC)c1NC(=O)CC(C)C |
| 139 to 141 | O=C1N(CC2CCCO2)c2ccccc2C12COc1cc3c(cc12)CCCC3 (configuration not stated) |
| 80 to 81 | CCCCCCCN=C1SC(=CC(=O)O)C(=O)N1CCCCCCC |
| 80 to 82 | COc1ccc(CN2C(=O)C(CCO)Oc3ccccc32)cc1 (configuration not stated) |
| 70 to 72 | Nc1cccc2c1OCC2 |
| 133 | CC(C)c1cn2ccccc2c1S(=O)(=O)c1ccc(OCCCBr)cc1 |
| 120 to 122 | CSC(=NC(C)=O)Nc1ccccc1[N+](=O)[O-] |
| 126 to 130 | [N-]=[N+]=NC1(O)CC(n2cc(I)c(=O)[nH]c2=O)OC1CO (configuration not stated) |
| 148 to 149 | OCC1(Cc2ccc(Cl)c(Cl)c2)CCNCC1 |
| 214 to 217 | N#Cc1ccc(N=CNc2ccc(C#N)cc2)cc1 |
| 307 to 308 | Oc1ccc(-c2cnc3cnc(-c4ccc(O)cc4)nc3c2)cc1 |
| 81 to 83 | N#CCCOc1ccc(Oc2ccccc2)cc1 |
| 150 | Cn1ccc(Nc2ccc([N+](=O)[O-])cc2[N+](=O)[O-])n1 |
| 78 to 79 | CCNC(=O)c1ccc2ccc(OC)cc2c1OC(C)C |
| 64 to 65 | O=C(CCC(F)(F)Cl)Nc1ccccn1 |
| 149 | C#Cc1cnn2c(C(F)F)cc(-c3cccc(C(F)(F)F)c3)nc12 |
| 95 to 96 | CCOC(=O)c1c(C)nc(-c2ccccc2)nc1-c1ccncc1 |
| 155 to 156 | COC(=O)C1=C(C)NC(C)=C(C(=O)OC)C1C |
| 174 to 175 | CCCCOc1c(CNC(=O)OC(C)(C)C)n(CC(C)C)c(=O)c2ccc(NC(C)=O)cc12 |
| 110 to 112 | O=c1ccn(CCO)c(C(O)c2ccc3ccccc3c2)c1OCc1ccccc1 (configuration not stated) |
| 116 to 120 | CC(C)(CO)Nc1nc(-c2cccc(Br)c2)cs1 |
| 39 to 40 | O=C(C1CCC1)N1CCSCC1 |

| melting point [°C] | SMILES |
| --- | --- |
| 89 to 90 | Cc1oc(C=Cc2ccccc2Cl)nc1CC#N |
| 245 to 246 | NC(=O)C1CCc2[nH]c3cc(Cl)c(F)cc3c2C1 (configuration not stated) |
| 160 to 162 | CCNC(=O)Nc1cc(-c2sc(CC)nc2-c2cccc(C)c2)ccn1 |
| 225 to 227 | CCCCc1oc2ccccc2c1C(=O)Nc1ccc(-c2ccc(OCC(=O)O)cc2)cc1 |
| 199 | Cc1cccc(NC(=O)NCC(=O)N2[C@@H](C(=O)OC(C)(C)C)C[C@@H](C(=O)N(C)C)[C@H]2c2ccccc2)c1 (racemic) |
| 171 to 177 | Cn1nc(-c2c(F)cccc2F)nc1-c1ccc(OCc2ccc(C(F)(F)F)cc2)c(Cl)c1 |
| 244 to 246 | COc1ccc(S(=O)(=O)N(Cc2cccnc2)c2c(C(=O)O)cnc3onc(C)c23)cc1 |
| 149 | CCOC(=O)C(=NO)C(=O)c1ccc(Br)cc1 |
| 201 to 202 | Cc1nc(-c2ccccc2)ncc1CN1CCN(c2ccc(O)cc2)CC1 |
| 120 to 122 | O=C(COc1ccc(Cl)cc1)N1Cc2cccn2Cc2ccccc21 |
| 99 to 100 | CCOC(=O)c1sc(N)nc1C(C)(C)C |
| 280 to 281 | Cc1cc(-c2nc3ccc(N4CCOCC4)cc3c(=O)[nH]2)cc(C)c1OCCO |
| 140 | CCCCc1cn(Cc2ccc(-c3ccccc3C(=O)OC)cc2)c2cc(CO)ccc2c1=O |
| 128 to 130 | O=c1c(Br)c(OCc2ccccc2)ccn1CCc1cccs1 |
| 164 | CCOC(=O)C(=CNc1ccc(C2=NNC(=O)CC2)cc1)C(=O)OCC |
| 126 | CCOP(=O)(OCC)C(O)=C1CCc2cc(CC3CCCC3)c(Cl)cc21 |
| 147 to 148 | Fc1ccc2[nH]cc(CCCCN3CCN(c4cccc(Cl)c4Cl)CC3)c2c1 |
| 240 to 243 | CN(CCN(C)[C@H]1CC[C@H](c2ccc3[nH]c(=O)oc3c2)CC1)c1ccccc1 |
| 132 to 135 | CCOC(=O)Cc1cccc2c(-c3ccc(N(C)C)cc3)nccc12 |
| > 245 | N#Cc1cnc2sc(I)cc2c1Nc1cccc2cc[nH]c12 |
| 128 to 130 | CC(C)C(=O)C(=CC(=O)c1ccc(Cl)cc1)n1cncn1 |
| 135 to 140 | C[C@H](c1ccccc1)n1c(N)nc2c(N)nc3ccccc3c21 |
| 108 | COC(=O)c1ccn2c1C(C(=O)OC)CCC2 (configuration not stated) |

| SMILES | melting point [°C] |
| --- | --- |
| COc1ccc(N(C(=O)CN2C(=O)C(Cc3cc(C)n[nH]3)C(=O)N(c3ccccc3)c3ccccc32)C(C)C)cc1 (configuration not stated) | 156 to 159 |
| Cc1ccc(-c2c(C#N)nn(-c3c(Cl)cc(C(F)(F)F)cc3Cl)c2N)cc1 | 243 to 244 |
| C=C1NC(=O)N(Cc2ccccc2)C1=N | 139 to 141 |
| Cc1cc(C2=NO[C@@](c3cc(Cl)c(F)c(Cl)c3)(C(F)(F)F)C2)ccc1C(=O)NC1CS(=O)(=O)C1 | 134 to 136 |
